Laboratory results: patent US11214803B2, “Modulators of YAP1 expression” (Ionis Pharmaceuticals, Inc., priority 2019, dated 2022)
Strand notation (5' to 3'): a small letter for the sugar, then the base; units joined by * are phosphorothioate-linked, units joined directly phosphodiester-linked; [ ] holds rarer units or linkages, { } end groups; capitals alone tell only the bases. k = constrained ethyl (cEt); [5mC] = 5-methylcytosine; d = 2'-deoxy (DNA)

test system: Yap1 mRNA; experiment: Antisense inhibition of human Yap1 in A-431 cells by cEt gapmers, single dose (Example 3, RTS36584); assay type: cell-based; details: Table 8; A-431 cells, 5,000 cells per well, free uptake, 2,000 nM, approximately 48 hours; RTS36584; normalized to RIBOGREEN; Yap1 mRNA relative to untreated control cells
Procedure, shortened: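 Values are % untreated control: Yap1 mRNA by quantitative RT-PCR (RTS36584), normalized to total RNA by RiboGreen. Before RNA isolation, 5,000 A-431 cells per well were exposed ~48 h to 2,000 nM 16-mer cEt gapmer, delivered without transfection reagent.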

Point of comparison: “958423 (antisense kG*kA*kT*d[5mC]*dA*dA*d[5mC]*dA*dT*dG*d[5mC]*dT*dA*kA*k[5mC]*kA) [Compound 958423]”, “YAP1 (% UTC)” value 51 % UTC. Against it:
- 958368 (antisense kA*kT*k[5mC]*dT*dA*dG*d[5mC]*dT*dT*dG*dG*dT*dG*kG*k[5mC]*kA) [Compound 958368] — lower, 11 % UTC
- 958371 (antisense kA*k[5mC]*k[5mC]*dA*dA*d[5mC]*dT*dA*dT*dT*dA*d[5mC]*dT*kT*k[5mC]*kA) [Compound 958371] — lower, 2 % UTC
- 958376 (antisense k[5mC]*kT*kG*dG*dG*dA*dT*dT*dG*dA*dT*dA*dT*kT*k[5mC]*k[5mC]) [Compound 958376] — lower, 31 % UTC
- 958398 (antisense kG*k[5mC]*kA*dG*dG*d[5mC]*dT*dA*dT*dT*dA*dA*dG*k[5mC]*kT*kG) [Compound 958398] — higher, 76 % UTC
- 958351 (kT*k[5mC]*kT*d[5mC]*d[5mC]*dG*dA*dG*dT*d[5mC]*d[5mC]*d[5mC]*d[5mC]*kG*k[5mC]*kG; antisense) [Compound 958351] — higher, 67 % UTC

same assay, conditions: Table 9; A-431 cells, 5,000 cells per well, free uptake, 2,000 nM, approximately 48 hours; RTS36584; normalized to RIBOGREEN; Yap1 mRNA relative to untreated control cells

Point of comparison: “958781 (antisense kG*kT*k[5mC]*dA*dT*d[5mC]*dT*dA*dT*dG*dT*dG*dT*k[5mC]*k[5mC]*kT) [Compound 958781]”, “YAP1 (% UTC)” value 6 % UTC. Against it:
- 958446 (antisense k[5mC]*k[5mC]*kT*dG*dA*d[5mC]*d[5mC]*d[5mC]*dA*dG*dG*d[5mC]*dG*kA*kG*k[5mC]) [Compound 958446] — higher, 70 % UTC
- 958501 (kT*kG*k[5mC]*d[5mC]*dT*dA*dG*dG*dT*dT*d[5mC]*d[5mC]*dG*kA*k[5mC]*kA; antisense) [Compound 958501] — higher, 41 % UTC
- 958796 (antisense kA*kT*kT*dA*dT*dA*dT*dG*dG*dT*dT*dG*d[5mC]*kT*kT*k[5mC]) [Compound 958796] — lower, 3 % UTC
- 958561 (kA*k[5mC]*kA*d[5mC]*dA*dG*dA*dG*dG*dT*dG*d[5mC]*dT*kA*kG*k[5mC]; antisense) [Compound 958561] — higher, 48 % UTC

same assay, conditions: Table 10; A-431 cells, 5,000 cells per well, free uptake, 2,000 nM oligonucleotide, approx. 48 hours; primer probe set RTS36584; Yap1 mRNA normalized to RIBOGREEN, percent of untreated control

Point of comparison: “958772 (antisense k[5mC]*kA*kA*d[5mC]*dA*dA*dA*d[5mC]*dA*dT*dA*dG*dT*kT*kA*k[5mC]) [Compound 958772]”, “YAP1 (% UTC)” value 61 % UTC. Against it:
- 958682 (k[5mC]*k[5mC]*kA*dT*dG*dA*dG*dG*dG*dA*d[5mC]*dT*d[5mC]*k[5mC]*k[5mC]*kA; antisense) [Compound 958682] — higher, 123 % UTC
- 958727 (antisense kA*kT*k[5mC]*dT*dG*dT*d[5mC]*dA*dG*dT*dT*dA*dT*k[5mC]*k[5mC]*kT) [Compound 958727] — lower, 2 % UTC
- 958437 (antisense kA*kG*kG*d[5mC]*dA*d[5mC]*dT*d[5mC]*dG*dG*dA*d[5mC]*d[5mC]*kT*kG*k[5mC]) [Compound 958437] — higher, 84 % UTC
- 958777 (antisense kG*kT*kA*dA*d[5mC]*dT*dG*dT*dT*dT*d[5mC]*dT*dA*kG*kG*kT) [Compound 958777] — lower, 10 % UTC

same assay, conditions: Table 11; A-431 cells, 5,000 cells per well, free uptake, 2,000 nM oligonucleotide, approx. 48 hours; primer probe set RTS36584; Yap1 mRNA normalized to RIBOGREEN, percent of untreated control

Point of comparison: “958528 (kA*kG*kT*d[5mC]*dT*dT*dG*dT*dA*dA*dG*dT*dA*kA*kG*kA; antisense) [Compound 958528]”, “YAP1 (% UTC)” value 18 % UTC. Against it:
- 958508 (kG*kA*kG*dA*dG*d[5mC]*dA*dG*dA*dT*dA*dA*dT*k[5mC]*kG*kA; antisense) [Compound 958508] — lower, 7 % UTC
- 958713 (antisense kT*kG*k[5mC]*dT*dA*dG*dA*dG*dG*d[5mC]*dT*dG*dT*kT*k[5mC]*k[5mC]) [Compound 958713] — higher, 55 % UTC
- 958793 (antisense k[5mC]*k[5mC]*kG*d[5mC]*dA*dT*dT*dG*d[5mC]*d[5mC]*dT*dA*dA*kG*kA*kG) [Compound 958793] — lower, 9 % UTC
- 958628 (antisense kG*k[5mC]*kT*dA*dA*d[5mC]*dT*dA*d[5mC]*dA*dT*dT*dG*k[5mC]*kA*kG) [Compound 958628] — higher, 81 % UTC

same assay, conditions: Table 13; A-431 cells, 5,000 cells per well, free uptake, 2,000 nM modified oligonucleotide, approx. 48 hours; RTS36584; normalized to RIBOGREEN; Yap1 mRNA relative to untreated control cells

Point of comparison: “958560 (kG*kG*kT*dG*d[5mC]*d[5mC]*dA*d[5mC]*dT*dT*dT*dA*dA*kT*kT*k[5mC]; antisense) [Compound 958560]”, “YAP1 (% UTC)” value 22 % UTC. Against it:
- 958770 (antisense kA*k[5mC]*kA*dG*dA*dG*d[5mC]*dG*dG*dT*dG*d[5mC]*dA*k[5mC]*k[5mC]*k[5mC]) [Compound 958770] — higher, 64 % UTC
- 958725 (antisense kG*kT*k[5mC]*dA*dG*dT*dT*dA*dT*d[5mC]*d[5mC]*dT*dA*kT*k[5mC]*k[5mC]) [Compound 958725] — lower, 1 % UTC
- 958480 (antisense kA*kA*k[5mC]*dT*dG*dG*d[5mC]*dT*dT*dA*dT*dG*dG*kA*kA*kA) [Compound 958480] — higher, 24 % UTC
- 958515 (k[5mC]*k[5mC]*k[5mC]*d[5mC]*dA*dA*d[5mC]*d[5mC]*dA*dG*dA*dT*dT*kT*kA*kA; antisense) [Compound 958515] — higher, 28 % UTC
- 958615 (antisense kT*kG*kG*dT*d[5mC]*dT*dT*dG*dT*dT*d[5mC]*dT*dT*kA*kT*kG) [Compound 958615] — lower, 3 % UTC
- 958705 (antisense kG*kG*k[5mC]*d[5mC]*dA*dT*d[5mC]*dA*dA*dT*dA*dA*dA*kG*kA*k[5mC]) [Compound 958705] — higher, 112 % UTC

same assay, conditions: Table 26; Yap1 mRNA by 3-10-3 cEt gapmers targeting SEQ ID NO.: 1, and 2; percent of untreated control

Point of comparison: “1074604 (DNA kT*kT*kA*dT*dT*dA*dA*dT*d[5mC]*dT*dG*dA*dT*k[5mC]*kA*k[5mC]) [compound 1074604]”, “YAP1 (% UTC)” value 12 % UTC. Against it:
- 1075276 (kG*kA*k[5mC]*d[5mC]*dA*dA*dT*dA*d[5mC]*dA*dA*dT*dG*kG*kG*kA; antisense) [compound 1075276] — higher, 78 % UTC

same assay, conditions: Table 27; Yap1 mRNA by 3-10-3 cEt gapmers targeting SEQ ID NO.: 1, and 2; percent of untreated control

Point of comparison: “1075149 (kG*k[5mC]*kG*dG*dA*dA*dA*dA*dA*dA*d[5mC]*dA*d[5mC]*k[5mC]*kT*kA; antisense) [compound 1075149]”, “YAP1 (% UTC)” value 50 % UTC. Against it:
- 1074285 (antisense kG*k[5mC]*kA*dA*dA*dA*d[5mC]*dG*dA*dG*dG*dG*dT*k[5mC]*kA*kA) [compound 1074285] — lower, 17 % UTC
- 1075661 (antisense kG*kA*kA*dT*dA*dG*dG*dA*dT*dA*d[5mC]*dA*dA*kG*k[5mC]*kA) [compound 1075661] — higher, 74 % UTC

same assay, conditions: Table 28; Yap1 mRNA as percent of untreated control; 3-10-3 cEt gapmers targeting SEQ ID NO.: 1, and 2

Point of comparison: “1074574 (DNA k[5mC]*kA*kT*dT*dA*dT*dG*dA*dA*d[5mC]*d[5mC]*dT*dA*k[5mC]*kT*k[5mC]) [compound 1074574]”, “YAP1 (% UTC)” value 17 % UTC. Against it:
- 1076398 (antisense k[5mC]*kT*kT*dG*dA*dA*dG*dG*dG*d[5mC]*dT*dA*dT*kG*kG*kA) [compound 1076398] — higher, 62 % UTC

same assay, conditions: Table 29; Yap1 mRNA as percent of untreated control; 3-10-3 cEt gapmers targeting SEQ ID NO.: 1, and 2

Point of comparison: “1074959 (antisense kT*kT*kA*dA*d[5mC]*d[5mC]*d[5mC]*dG*dG*dG*dT*dT*dT*kT*kT*kG) [compound 1074959]”, “YAP1 (% UTC)” value 128 % UTC. Against it:
- 1074255 (antisense kT*k[5mC]*kA*dT*d[5mC]*dT*dG*dG*dG*dA*d[5mC]*dA*dG*k[5mC]*kA*kT) [compound 1074255] — lower, 16 % UTC
- 1075119 (kA*kG*kG*dG*dA*dA*dT*dA*dT*dG*dT*dT*dA*kA*kT*k[5mC]; antisense) [compound 1075119] — lower, 8 % UTC
- 1076079 (kA*kA*kG*d[5mC]*dA*dA*dT*dA*dT*dA*dT*dG*dG*k[5mC]*k[5mC]*kT; antisense) [compound 1076079] — lower, 37 % UTC
- 1075311 (antisense kA*kG*kT*dA*dA*dT*dT*dA*dA*dA*d[5mC]*dG*dA*kA*kA*k[5mC]) [compound 1075311] — lower, 100 % UTC

same assay, conditions: Table 34; Yap1 mRNA as percent of untreated control; 3-10-3 cEt gapmers targeting SEQ ID NO: 1 and 2; single dose

Point of comparison: “1074196 (antisense kG*k[5mC]*k[5mC]*d[5mC]*dG*dG*dG*dT*d[5mC]*d[5mC]*dG*dG*dA*k[5mC]*kG*kG) [compound 1074196]”, “YAP1 (% UTC)” value 99 % UTC. Against it:
- 1075540 (kG*k[5mC]*kT*dT*dA*dA*dG*dG*dG*dA*dT*dG*dG*kA*kA*k[5mC]; antisense) [compound 1075540] — lower, 78 % UTC
- 1074164 (k[5mC]*k[5mC]*kA*dG*dG*d[5mC]*dG*dA*dG*d[5mC]*dG*dA*dG*kG*kG*k[5mC]; antisense) [compound 1074164] — higher, 135 % UTC

same assay, conditions: Table 35; Yap1 mRNA as percent of untreated control; 3-10-3 cEt gapmers targeting SEQ ID NO: 1 and 2; single dose

With “1076437 (kG*kA*kA*dG*dA*dA*dT*dA*dG*d[5mC]*dA*dT*d[5mC]*kT*kG*kA; antisense) [compound 1076437]” the “YAP1 (% UTC)” value was 19 % UTC.
